Reference: patent US20070248599A1 (priority 2006, published 2007)

T1: ApoER2 (Mus musculus, UniProt Q924X6)
T1 construct: expressed in transfected cells; host or cells: HEK293 (inferred; the pull-down text names HEK293 lysates only for X11-transfected cells)
T1 sequence (Q924X6 29-996): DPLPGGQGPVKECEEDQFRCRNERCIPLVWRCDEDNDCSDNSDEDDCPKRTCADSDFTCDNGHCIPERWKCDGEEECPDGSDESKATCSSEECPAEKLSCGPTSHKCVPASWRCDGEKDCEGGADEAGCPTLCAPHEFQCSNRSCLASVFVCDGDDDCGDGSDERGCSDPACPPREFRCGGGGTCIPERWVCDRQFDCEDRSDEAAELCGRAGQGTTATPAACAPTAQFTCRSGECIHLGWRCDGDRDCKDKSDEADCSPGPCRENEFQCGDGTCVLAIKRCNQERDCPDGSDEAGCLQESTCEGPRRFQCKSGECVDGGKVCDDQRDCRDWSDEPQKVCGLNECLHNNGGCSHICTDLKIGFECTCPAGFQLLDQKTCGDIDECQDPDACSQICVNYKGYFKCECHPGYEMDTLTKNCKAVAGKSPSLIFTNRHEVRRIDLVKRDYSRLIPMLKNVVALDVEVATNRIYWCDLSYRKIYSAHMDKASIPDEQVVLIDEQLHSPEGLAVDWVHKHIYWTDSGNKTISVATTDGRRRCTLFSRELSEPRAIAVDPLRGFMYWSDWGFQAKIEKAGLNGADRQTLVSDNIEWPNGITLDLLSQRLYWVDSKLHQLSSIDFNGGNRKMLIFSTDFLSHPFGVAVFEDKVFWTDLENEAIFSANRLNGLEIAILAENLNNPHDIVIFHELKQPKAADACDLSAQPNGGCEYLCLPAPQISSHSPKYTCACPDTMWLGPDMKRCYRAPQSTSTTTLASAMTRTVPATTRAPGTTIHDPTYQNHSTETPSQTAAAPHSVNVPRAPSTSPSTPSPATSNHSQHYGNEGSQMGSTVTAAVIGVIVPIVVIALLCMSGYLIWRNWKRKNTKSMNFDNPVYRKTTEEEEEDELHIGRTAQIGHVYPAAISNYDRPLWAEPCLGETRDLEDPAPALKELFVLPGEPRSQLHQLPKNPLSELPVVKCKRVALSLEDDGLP

B1: PTB domain: PTB domain of X11α (residue 457-751), expressed from pcDNA6 as dominant-negative inhibitor or as GST fusion (protein)
chain: DGIIFAANYLGSTQLLSDKTPSKNVRMMQAQEAVSRIKMAQKLAKSRKKAPEGESQPMTEVDLFISTQRIKVLNADTQETMMDHPLRTISYIADIGNIVVLMARRRMPRSNSQENVEASHPSQDGKRQYKMICHVFESEDAQLIAQSIGQAFSVAYQEFLRANGINPEDLSQKEYSDLLNTQDMYNDDLIHFSKSENCKDVFIEKQKGEILGVVIVESGWGSILPTVIIANMMHGGPAEKSGKLNIGDQIMSINGTSLVGLPLSTCQSIIKGLKNQSRVKLNIVRCPPVTTVLIR
modifications: left off: a dimerising Fc or GST

Key:
[1] = tested on: N2a-APPsw cells transfected with ApoER2 and β-secretase; assay: Internalization of cell surface proteins (biotinylation, Western blot); type: cell-based, mouse
Method: Internalization of cell surface proteins. N2a-APPsw cells were transiently tranfected with ApoER2 and β-secretase with Lipfectamine 2000. […] Cells were then placed on ice, rinsed in cold PBS and incubated in PBS containing 1.5 mg/mL sulfo-NHS-LC-biotin (Pierce) for 20 min at 4° C. Cells were rinsed twice in PBS and lysed in 800 μl PBS containing 0.1% SDS, 1% NP40 and a complete protease inhibitor cocktail. Total protein concentration was determined by immunoblotting from an aliquot of 50 μl cell lysate. Biotinylated proteins were recovered with NeutrAvidin agarose (50 μl; Pierce), rinsed three times, eluted in 20 μl SDS-sample buffer at boiling temperature and used for Western-blot. Quantity of bands was determined by optical scanning instruments specified above. For the determination of internalized proteins, cells were prepared as above, rinsed in PBS and then incubated with cold 1.5 mg/mL cleavable biotin reagent in PBS (EZ-Link Sulfo-NHS-SS biotin, Pierce) for 20 min at 4° C. […] Cells were then lysed in 800 μl PBS containing 0.1% SDS, 1% NP40 and a complete protease inhibitor cocktail. After centrifugation, biotinylated proteins were retrieved by incubation with NeutrAvidin agarose (50 μl; Pierce). Isolated proteins were rinsed in buffer three times and boiled in 20 μl sample buffer for Western blots.

[2] = tested on: N2a-APPsw cells; assay: Cellular Aβ production in N2a-APPsw cells (Aβ40 ELISA of conditioned medium); type: cell-based, mouse
[3] = tested on: N2a-APPsw cells; assay: as above; type: cell-based, mouse; remark: listed apart in the source
Method: Quantification of β-Amyloid40, Neuro-2a cell stably overexpressing APPsw695 was used for detecting of β-Amyloid40. N2a-APPsw cells were grown in Dulbecco's Modified Eagle's medium (DMED) containing 10% fetal bovine serum, 100 U/mL penicillin, and 100 μg/mL streptomycin (GibcoBUR) with 80 μg/mL G418. Cells were cultured in 24-well plates one day before treatment. Transient transfections were done using FeGENE6 (Roche), fresh Optimum medium (Invitrogen) were supplied 5 h after transfection. Same concentration purified Apolipoprotein was added into the fresh medium. Conditioned medium was collected 24 h later. Aβ40 was quantified with sandwich ELISA by using Aβ40 ELISA Kit (Biosource). At least three times assays were done for each condition.
(§1) Cellular Aβ40 production. Neuroblastoma N2a-APPsw cells (from Dr. Riqiang Yan, Lerner Research Institute, Cleveland, Ohio) were cultured in 24-well plates in Dulbecco's Modified Eagle's medium (DMED) containing 10% fetal bovine serum, 100 U/mL penicillin, and 100 μg/mL streptomycin (GibcoBUR) with 80 μg/mL G418 one day before use. Transient transfections were done using FeGENE6 (Roche), fresh Optimum medium (Invitrogen) were supplied 5 h after transfection. Apolipoproteins were added in the fresh medium at 10 μg/mL. Conditioned medium was collected 24 h later. Aβ40 was determined in tripcates using Aβ40 ELISA Kit (Biosource). For studying the effect of PTB domain on Aβ production, N2a-APPsw cells were transfected with (0.4 μg/per well for 24 well plate) of PTB-containing vector before subjected to the above procedure.

[4] = tested on: N2a-APPsw cells transfected with ApoER2 and β-secretase; assay: Internalization of cell surface proteins (biotinylation, Western blot); type: cell-based, mouse; conditions: Western blot of conditioned medium (FIG. 6D)
[5] = target: LDL (low-density lipoprotein) lipid receptor (Homo sapiens, UniProt P01130); conditions: cited from earlier work
[6] = target: T1, ApoER2; assay: GST pull-down of ApoER2 by X11α domains; type: binding, murine; conditions: GST fusions of X11α domains, Western blot (FIG. 8A)
From the text: cDNA vectors. Vectors for human β-secretase and Swedish mutant of APP were previously described (Lin et al., 2000). Vectors for human X11α, X11β, human LRP, and murine ApoER2 were kindly provided by Dr. Chistopher C J Miller (Kings College London, UK), Dr. Ben Margolis (University of Michigan), Dr. Guojun Bu (Washington University), and Dr. Johannes Nimpf (University of Vienna, Austria) respectively. PCR was used for transferring murine ApoER2 gene into pcDNA6 with V5-His-Tag at the C-terminus and for creating mutants of murine ApoER2 in pcDNA6. PTB domain of X11α (residue 457-751) were amplified by PCR and inserted into pcDNA6. GST constructs of GST-PTB (457-751), GST-PDZ (650-837) of X11α and GST constructs of ApoER2 cytosolic domain GST-ApoC1 (881-996), GST-ApoC2 (881-925), GST-ApoC3 (926-996) and GST-APPc (650-695) were amplified by PCR and inserted into plasmid pGEX6.1 (Pharmacia). All constructs were verified by sequencing. GST fusion proteins were produced in Escherichia coli BL21 strain and purified as described previously (He et al., 2003).
Pull-down assays. For GST pull down, GST fusion proteins were retrieved as previously described (He et al., 2003). The amount of protein recovered with glutathione beads was determined using Bio-Rad Protein Assay and diluted to yield a concentration of 1 mg protein/mL of beads. […]

[7] = tested on: endogenous X11α/β; assay: Effect of transfected PTB domain of X11α on ApoE-induced Aβ production; type: cell-based, mouse; conditions: PTB expression in N2a-APPsw cells, 0.4 μg vector per well (FIG. 9B)
Method: as §1

[8] = 10 μg/mL, internalization 15 min at 37° C. (FIG. 6B)

LDL (low-density lipoprotein) lipid receptor, sequence (P01130 22-860): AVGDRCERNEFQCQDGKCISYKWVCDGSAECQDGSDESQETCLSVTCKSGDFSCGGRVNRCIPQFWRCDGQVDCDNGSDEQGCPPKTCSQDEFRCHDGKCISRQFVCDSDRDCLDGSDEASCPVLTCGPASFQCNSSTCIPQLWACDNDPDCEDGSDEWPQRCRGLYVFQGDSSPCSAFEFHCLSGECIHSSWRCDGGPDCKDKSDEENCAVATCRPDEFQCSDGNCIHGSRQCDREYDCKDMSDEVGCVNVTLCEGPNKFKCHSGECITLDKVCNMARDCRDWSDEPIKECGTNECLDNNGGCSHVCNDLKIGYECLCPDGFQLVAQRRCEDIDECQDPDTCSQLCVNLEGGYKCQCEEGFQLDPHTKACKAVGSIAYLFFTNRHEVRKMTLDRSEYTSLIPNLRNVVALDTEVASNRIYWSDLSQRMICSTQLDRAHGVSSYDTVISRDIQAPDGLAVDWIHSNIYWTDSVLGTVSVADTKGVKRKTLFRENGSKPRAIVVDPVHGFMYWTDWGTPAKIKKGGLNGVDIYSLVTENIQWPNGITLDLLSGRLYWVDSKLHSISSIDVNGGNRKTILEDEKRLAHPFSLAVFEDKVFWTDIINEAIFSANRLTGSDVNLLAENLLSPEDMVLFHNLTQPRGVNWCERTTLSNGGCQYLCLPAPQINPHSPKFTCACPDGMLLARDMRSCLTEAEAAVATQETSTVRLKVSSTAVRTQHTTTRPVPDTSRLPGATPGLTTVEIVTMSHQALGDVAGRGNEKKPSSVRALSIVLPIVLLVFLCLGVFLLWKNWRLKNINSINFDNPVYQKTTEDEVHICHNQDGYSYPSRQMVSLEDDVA

| Molecule | total amounts of ApoER2, APP and β-secretase in the cell lysates ([1]; 10 μg/mL, 2 h) | decrease of remaining cell-surface β-secretase ([1]; 10 μg/mL, 2 h, compared to controls (FIG. 6A)) [%] | increase of intracellular APP [1, 8] [fold] | increase of intracellular ApoER2 [1, 8] | increase of intracellular β-secretase [1, 8] | intracellular APP C-terminal fragment C99 ([1]; Western blot, over the control (FIG. 6C)) | Aβ40 increase in cells transfected with ApoER2 versus blank vectors ([2]; 5 μg/mL, N2a APPsw cells, p<0.05 (FIG. 4)) | Aβ40 levels in medium ([2]; 5 μg/mL, blank vector transfected N2a APPsw cells vs control (FIG. 4)) | Aβ production ([2]; each at 5 μg/mL, 24 h, N2a-APPsw cells (FIG. 5B legend)) | Aβ production in cells transfected with ApoER2 versus without ([3]; N2a-APPsw cells (FIG. 5D)) | Aβ40 and Aβ42 production, ApoE4 in native human VLDL versus ApoE2 and ApoE3 ([3]; VLDL from individual human plasma, N2a-APPsw cells (FIG. 5C)) | Aβ production ([3]; recombinant ApoE forms at 10 μg/ml, N2a-APPsw cells (FIG. 5B)) | APP ectodomain generated by ∝-secretase, s∝-APP [4] | normal receptor binding activity [5] [%] | pull down of ApoER2 from the cell lysate [6] | ApoE4-induced Aβ increase [7] |
| --- | --- | --- | --- | --- | --- | --- | --- | --- | --- | --- | --- | --- | --- | --- | --- | --- |
| ApoE4: ApoE isoform with arginine substituted for cysteine at residue 112; from Biodesign / Alpha Diagnostic | remained about the same | ~35 | ~4 | small increases | small increases | significantly increased | increase of Aβ40 at a greater extent | increased over that in the control cells | increased Aβ production | produced more Aβ | stimulates higher Aβ production | increased Aβ production (FIG. 5B) with the highest response | reduction | 100 |  |  |
| B1 |  |  |  |  |  |  |  |  |  |  |  |  |  |  | pull down ApoER2 | largely abolished |
